Laboratory results reported in ChEMBL document CHEMBL1909046, “DrugMatrix in vitro pharmacology data”.
pIC50, pKi: −log10 of the molar value.

What was measured:
[1] = biological target: Mitogen-activated protein kinase 3 (Homo sapiens, UniProt P27361); experiment: DRUGMATRIX: Protein Serine/Threonine Kinase, ERK1 enzyme inhibition (substrate: Myelin Basic Protein); set-up: species or system Escherichia coli; settings: Not Active = under 50% inhibition at 10 µM
Melanocortin receptor 5 = Melanocortin receptor 5 (Homo sapiens, UniProt P33032); format: cell membranes, HEK293, Membrane; settings: hek293; also: in other assays of this panel Not Active means under 50% inhibition at 10 µM
Melanocortin receptor 5, sequence (P33032 whole entry): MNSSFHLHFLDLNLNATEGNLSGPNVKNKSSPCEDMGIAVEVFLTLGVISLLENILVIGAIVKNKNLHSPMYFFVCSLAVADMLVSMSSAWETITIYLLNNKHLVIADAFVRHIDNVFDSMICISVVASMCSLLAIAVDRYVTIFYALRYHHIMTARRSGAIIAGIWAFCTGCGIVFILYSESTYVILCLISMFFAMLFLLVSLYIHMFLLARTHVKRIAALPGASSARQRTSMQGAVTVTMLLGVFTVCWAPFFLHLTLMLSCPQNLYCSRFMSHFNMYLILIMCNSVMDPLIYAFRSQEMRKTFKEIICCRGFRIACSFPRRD

[2] = biological target: T1, Receptor-type tyrosine-protein phosphatase C (Homo sapiens, UniProt P08575); set-up: species or system Escherichia coli;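 also: inhibition of CD45 enzyme activity measured using DiFMUP as substrate; in other assays of this panel Not Active means under 50% inhibition at 10 µM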
T1 sequence (P08575 whole entry): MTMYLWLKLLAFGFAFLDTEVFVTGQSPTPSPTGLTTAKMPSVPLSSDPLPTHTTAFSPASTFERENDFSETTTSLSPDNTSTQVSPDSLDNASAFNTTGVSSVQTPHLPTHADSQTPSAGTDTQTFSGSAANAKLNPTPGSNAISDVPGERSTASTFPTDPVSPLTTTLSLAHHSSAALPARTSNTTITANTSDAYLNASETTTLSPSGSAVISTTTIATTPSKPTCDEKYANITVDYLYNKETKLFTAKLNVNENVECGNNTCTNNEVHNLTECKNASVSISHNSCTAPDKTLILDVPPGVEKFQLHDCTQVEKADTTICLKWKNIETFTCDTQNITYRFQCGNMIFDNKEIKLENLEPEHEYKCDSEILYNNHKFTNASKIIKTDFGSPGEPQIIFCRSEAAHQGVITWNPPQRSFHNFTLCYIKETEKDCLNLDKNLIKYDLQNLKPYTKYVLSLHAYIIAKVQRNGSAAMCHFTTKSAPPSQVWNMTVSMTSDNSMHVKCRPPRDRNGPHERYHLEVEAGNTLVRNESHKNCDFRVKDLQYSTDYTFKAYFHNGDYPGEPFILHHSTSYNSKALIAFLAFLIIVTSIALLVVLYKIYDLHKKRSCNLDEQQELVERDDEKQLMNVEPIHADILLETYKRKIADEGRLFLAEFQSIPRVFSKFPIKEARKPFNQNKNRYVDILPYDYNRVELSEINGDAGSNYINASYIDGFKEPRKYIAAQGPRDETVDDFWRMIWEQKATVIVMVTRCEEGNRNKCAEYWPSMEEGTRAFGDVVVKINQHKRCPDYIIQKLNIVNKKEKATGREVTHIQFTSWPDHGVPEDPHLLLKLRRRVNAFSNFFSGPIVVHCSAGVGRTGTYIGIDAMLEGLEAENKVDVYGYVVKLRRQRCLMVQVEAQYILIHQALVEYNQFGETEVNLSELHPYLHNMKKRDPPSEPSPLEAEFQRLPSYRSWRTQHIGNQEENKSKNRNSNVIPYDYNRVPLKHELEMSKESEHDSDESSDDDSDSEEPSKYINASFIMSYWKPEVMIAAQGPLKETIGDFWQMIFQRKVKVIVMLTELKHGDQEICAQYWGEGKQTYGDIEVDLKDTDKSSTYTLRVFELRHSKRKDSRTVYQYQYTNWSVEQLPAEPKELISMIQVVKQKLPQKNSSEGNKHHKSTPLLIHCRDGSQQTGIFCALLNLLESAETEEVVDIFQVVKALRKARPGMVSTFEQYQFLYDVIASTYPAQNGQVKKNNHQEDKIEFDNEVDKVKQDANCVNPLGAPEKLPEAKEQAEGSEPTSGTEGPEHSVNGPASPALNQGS

[3] = biological target: T2, Neuropeptide Y receptor type 1 (Homo sapiens, UniProt P25929); format: cell membranes, Membrane; settings: sk-n-mc; also: in other assays of this panel Not Active means under 50% inhibition at 10 µM
T2 sequence (P25929 whole entry): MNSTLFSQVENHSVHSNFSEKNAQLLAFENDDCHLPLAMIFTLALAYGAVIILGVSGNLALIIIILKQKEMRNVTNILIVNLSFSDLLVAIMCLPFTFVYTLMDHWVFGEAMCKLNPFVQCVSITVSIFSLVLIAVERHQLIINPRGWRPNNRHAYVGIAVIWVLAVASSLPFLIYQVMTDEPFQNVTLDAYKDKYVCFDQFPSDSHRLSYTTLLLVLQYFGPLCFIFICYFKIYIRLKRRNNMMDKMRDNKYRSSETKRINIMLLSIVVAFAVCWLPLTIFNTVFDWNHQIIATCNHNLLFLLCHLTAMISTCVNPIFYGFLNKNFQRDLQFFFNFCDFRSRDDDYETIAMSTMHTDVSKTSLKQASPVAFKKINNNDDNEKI

Adenosine receptor A3 = biological target: T3, Adenosine receptor A3 (Homo sapiens, UniProt P0DMS8); format: cell membranes, CHO-K1, Membrane; settings: for IC50: cho-k1; for pIC50: read-out: IC50; for pKi: read-out: Ki;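 as to all read-outs here: radioligand binding assay with AB-MECA serving as the labeled ligand; in other assays of this panel Not Active means under 50% inhibition at 10 µM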
T3 sequence (P0DMS8 whole entry): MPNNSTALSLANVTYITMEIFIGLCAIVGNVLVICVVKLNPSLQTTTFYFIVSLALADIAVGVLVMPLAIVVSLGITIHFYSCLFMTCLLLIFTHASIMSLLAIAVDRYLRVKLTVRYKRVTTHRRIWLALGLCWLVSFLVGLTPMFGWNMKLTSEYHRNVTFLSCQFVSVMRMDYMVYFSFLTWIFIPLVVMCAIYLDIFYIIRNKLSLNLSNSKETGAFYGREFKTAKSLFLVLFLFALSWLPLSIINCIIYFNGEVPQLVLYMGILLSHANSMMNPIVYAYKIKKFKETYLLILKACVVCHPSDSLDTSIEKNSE

[4] = DRUGMATRIX: ATPase, Na+/K+ enzyme inhibition (substrate: ATP); format: tissue-based, Sus scrofa, Heart; settings: Not Active = under 50% inhibition at 10 µM
[5] = biological target: T4, Muscarinic acetylcholine receptor M5 (Homo sapiens, UniProt P08912); format: cell membranes, Membrane; settings: cho-k1; also: in other assays of this panel Not Active means under 50% inhibition at 10 µM
T4 sequence (P08912 whole entry): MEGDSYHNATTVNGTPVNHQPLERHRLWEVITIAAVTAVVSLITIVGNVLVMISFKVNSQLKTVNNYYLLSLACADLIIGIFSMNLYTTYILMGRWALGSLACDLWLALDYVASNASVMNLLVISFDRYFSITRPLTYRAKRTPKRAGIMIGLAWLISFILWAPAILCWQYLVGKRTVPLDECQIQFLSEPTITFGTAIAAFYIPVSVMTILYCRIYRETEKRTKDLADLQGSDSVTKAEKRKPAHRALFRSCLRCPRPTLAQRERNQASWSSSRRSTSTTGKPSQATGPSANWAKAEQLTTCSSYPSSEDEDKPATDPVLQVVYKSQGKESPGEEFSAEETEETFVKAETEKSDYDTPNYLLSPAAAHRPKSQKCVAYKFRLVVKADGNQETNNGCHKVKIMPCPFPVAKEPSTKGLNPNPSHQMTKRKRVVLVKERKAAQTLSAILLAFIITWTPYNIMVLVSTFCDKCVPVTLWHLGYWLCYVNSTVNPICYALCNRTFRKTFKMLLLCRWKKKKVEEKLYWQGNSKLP

[6] = biological target: Delta-type opioid receptor (Homo sapiens, UniProt P41143); format: cell membranes, HEK293, Membrane; settings: hek293; also: in other assays of this panel Not Active means under 50% inhibition at 10 µM
Delta-type opioid receptor, sequence (P41143 whole entry): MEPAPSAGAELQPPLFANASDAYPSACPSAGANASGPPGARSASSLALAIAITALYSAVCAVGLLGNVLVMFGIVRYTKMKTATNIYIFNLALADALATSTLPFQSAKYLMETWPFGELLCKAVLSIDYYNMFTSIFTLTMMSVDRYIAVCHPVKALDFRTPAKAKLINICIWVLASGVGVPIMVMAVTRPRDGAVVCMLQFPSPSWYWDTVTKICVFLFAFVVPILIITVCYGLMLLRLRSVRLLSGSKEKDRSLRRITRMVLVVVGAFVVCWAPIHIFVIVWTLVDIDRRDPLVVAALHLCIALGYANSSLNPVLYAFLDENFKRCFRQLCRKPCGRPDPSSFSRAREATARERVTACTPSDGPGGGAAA

Mitogen-activated protein kinase 3, sequence (P27361 whole entry): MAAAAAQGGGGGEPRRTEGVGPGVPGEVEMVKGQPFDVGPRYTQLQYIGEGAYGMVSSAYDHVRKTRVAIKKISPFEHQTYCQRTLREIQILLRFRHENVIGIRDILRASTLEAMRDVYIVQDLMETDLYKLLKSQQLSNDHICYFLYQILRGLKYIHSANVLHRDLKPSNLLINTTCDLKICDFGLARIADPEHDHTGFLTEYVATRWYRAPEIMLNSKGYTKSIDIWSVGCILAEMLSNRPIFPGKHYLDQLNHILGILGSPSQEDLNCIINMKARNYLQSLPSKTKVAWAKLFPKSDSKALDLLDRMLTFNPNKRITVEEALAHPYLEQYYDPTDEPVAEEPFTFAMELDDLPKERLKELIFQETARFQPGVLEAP

Row | Structure (SMILES) | IC50 [1] | IC50 (Melanocortin receptor 5) | IC50 [2] | IC50 [3] | IC50 (Adenosine receptor A3) | IC50 [4] | Ki [4] | IC50 [5] | IC50 [6] | pIC50 (Adenosine receptor A3) | pKi (Adenosine receptor A3)
1 | Nc1nc(N)nc(NC2CC2)n1 [CYROMAZINE] | Not Active | Not Active | Not Active | Not Active | Not Active | Not Active | Not Active | Not Active | Not Active | – | –
2 | C#C[C@]1(O)CC[C@H]2[C@@H]3CCC4=Cc5oncc5C[C@]4(C)[C@H]3CC[C@@]21C [DANAZOL] | Not Active | Not Active | Not Active | Not Active | – | Not Active | Not Active | Not Active | Not Active | 4.95 | 5.20
3 | CCN[C@@H](C)Cc1cccc(C(F)(F)F)c1 [DEXFENFLURAMINE] | Not Active | Not Active | Not Active | Not Active | Not Active | Not Active | Not Active | Not Active | Not Active | – | –
4 | C[C@H](C(=O)O)c1cccc(C(=O)c2ccccc2)c1 [DEXKETOPROFEN] | Not Active | Not Active | Not Active | Not Active | Not Active | Not Active | Not Active | Not Active | Not Active | – | –
5 | CN1C(=O)CN=C(c2ccccc2)c2cc(Cl)ccc21 [DIAZEPAM] | Not Active | Not Active | Not Active | Not Active | Not Active | Not Active | Not Active | Not Active | Not Active | – | –
6 | CN1C[C@H](C(=O)N[C@]2(C)O[C@@]3(O)[C@@H]4CCCN4C(=O)[C@H](Cc4ccccc4)N3C2=O)C[C@@H]2c3cccc4[nH]cc(c34)C[C@H]21 [DIHYDROERGOTAMINE] | Not Active | Not Active | Not Active | Not Active | Not Active | Not Active | Not Active | Not Active | Not Active | – | –
7 | CC(CCc1ccc(O)cc1)NCCc1ccc(O)c(O)c1 (stereo unspecified) [DOBUTAMINE] | Not Active | Not Active | Not Active | Not Active | Not Active | Not Active | Not Active | Not Active | Not Active | – | –
8 | CCn1cc(C(=O)O)c(=O)c2cc(F)c(N3CCNCC3)nc21 [ENOXACIN] | Not Active | Not Active | Not Active | Not Active | Not Active | Not Active | Not Active | Not Active | Not Active | – | –
9 | CCC(=O)O[C@H]1[C@H](O[C@@H]2[C@@H](C)[C@H](O[C@H]3C[C@@](C)(OC)[C@@H](O)[C@H](C)O3)[C@@H](C)C(=O)O[C@H](CC)[C@@](C)(O)[C@H](O)[C@@H](C)C(=O)[C@H](C)C[C@@]2(C)O)O[C@H](C)C[C@@H]1N(C)C [ERYTHROMYCIN PROPIONATE] | Not Active | Not Active | Not Active | Not Active | Not Active | Not Active | Not Active | Not Active | Not Active | – | –
10 | C=C(CC)C(=O)c1ccc(OCC(=O)O)c(Cl)c1Cl [ETHACRYNIC ACID] | Not Active | Not Active | Not Active | Not Active | Not Active | Not Active | Not Active | Not Active | Not Active | – | –
11 | C#C[C@]1(O)CC[C@H]2[C@@H]3CCc4cc(O)ccc4[C@H]3CC[C@@]21C [ETHINYL ESTRADIOL] | Not Active | Not Active | Not Active | Not Active | – | Not Active | Not Active | Not Active | Not Active | 4.48 | 4.73
12 | OCCO [ETHYLENE GLYCOL] | Not Active | Not Active | Not Active | Not Active | Not Active | Not Active | Not Active | Not Active | Not Active | – | –
13 | CC(=O)OCC(CCn1cnc2cnc(N)nc21)COC(C)=O [FAMCICLOVIR] | Not Active | Not Active | Not Active | Not Active | Not Active | Not Active | Not Active | Not Active | Not Active | – | –
14 | O=C(O)Cc1ccc(-c2ccccc2)cc1 [FELBINAC] | Not Active | Not Active | Not Active | Not Active | Not Active | Not Active | Not Active | Not Active | Not Active | – | –
15 | CCOC(=O)C1=C(C)NC(C)=C(C(=O)OC)C1c1cccc(Cl)c1Cl (stereo unspecified) [FELODIPINE] | Not Active | Not Active | Not Active | Not Active | – | Not Active | Not Active | Not Active | Not Active | 5.98 | 6.22
16 | CC(C(=O)O)c1ccc(-c2ccccc2)c(F)c1 (stereo unspecified) [FLURBIPROFEN] | Not Active | Not Active | Not Active | Not Active | Not Active | Not Active | Not Active | Not Active | Not Active | – | –
17 | Cc1cn[nH]c1 [FOMEPIZOLE] | Not Active | Not Active | Not Active | Not Active | Not Active | Not Active | Not Active | Not Active | Not Active | – | –
